Test system: GNS166 cells
Assay: Label-free proteomics differential expression
Type: cell-based, human
Method: Proteomic studies were performed by the Proteomics Facility of the CIC bioGUNE by label-free relative quantification on nLC MS/MS. […] In both approaches, the top 20 enriched terms were plotted and the pathways were clustered using divisive hierarchical clustering based on pairwise Jaccard distances.

C#CCN(Cc1cc2cc(OCCCN3CCCCC3)ccc2n1S(=O)(=O)c1ccccc1)C(=O)CCCCCCC(=O)NO [DDI]
LogFC STAU1_HUMAN (protein O95793): -0.5064
LogFC BPNT1_HUMAN (protein O95861 GN=BPNT1): 0.8709
Direction MBD3_HUMAN (protein O95983): Down
LogFC MBD3_HUMAN (protein O95983): -1.39
Direction ZBED1_HUMAN (protein O96006): Down
LogFC ZBED1_HUMAN (protein O96006): -1.855
Direction NSD2_HUMAN (protein O96028): Down
LogFC NSD2_HUMAN (protein O96028): -2.1573
LogFC TPC2B_HUMAN (protein P0DI82 GN=TRAPPC2B): 1.676
LogFC HS71A_HUMAN (protein P0DMV8 GN=HSPA1A): 0.6446
LogFC AL1A1_HUMAN (protein P00352 GN=ALDH1A1): 1.798
Direction EGFR_HUMAN (protein P00533): Down
LogFC EGFR_HUMAN (protein P00533): -0.977
LogFC TPA_HUMAN (protein P00750 GN=PLAT): 1.254
LogFC CAH2_HUMAN (protein P00918 GN=CA2): 2.905
LogFC LDLR_HUMAN (protein P01130 GN=LDLR): -1.436
LogFC TFR1_HUMAN (protein P02786 GN=TFRC): 0.6801
LogFC TRFE_HUMAN (protein P02787 GN=TF): 1.471
LogFC FRIL_HUMAN (protein P02792 GN=FTL): 2.1013
LogFC GLCM_HUMAN (protein P04062 GN=GBA): 1.34
Direction ANXA1_HUMAN (protein P04083): Down
LogFC ANXA1_HUMAN (protein P04083): -0.1864
LogFC OAT_HUMAN (protein P04181 GN=OAT): 0.8669
LogFC TBB4A_HUMAN (protein P04350 GN=TUBB4A): 2.022
LogFC AT1B1_HUMAN (protein P05026 GN=ATP1B1): 0.7382
LogFC CHLE_HUMAN (protein P06276 GN=BCHE): 1.793
LogFC GELS_HUMAN (protein P06396 GN=GSN): 1.338
Direction CDK1_HUMAN (protein P06493): Down
LogFC CDK1_HUMAN (protein P06493): -2.828
LogFC H10_HUMAN (protein P07305 GN=H1-0): 2.4177
Direction CAN1_HUMAN (protein P07384): Down
LogFC CAN1_HUMAN (protein P07384): -0.5477
LogFC HEXB_HUMAN (protein P07686 GN=HEXB): 2.1461
LogFC TNR16_HUMAN (protein P08138 GN=NGFR): 4.357
LogFC ASNS_HUMAN (protein P08243 GN=ASNS): 0.9749
LogFC ANXA5_HUMAN (protein P08758 GN=ANXA5): 0.5383
Direction SRP19_HUMAN (protein P09132): Down
LogFC SRP19_HUMAN (protein P09132): -0.7201
Direction HMGB1_HUMAN (protein P09429): Down
LogFC HMGB1_HUMAN (protein P09429): -0.3836
LogFC SPRC_HUMAN (protein P09486 GN=SPARC): 0.9159
Direction DPOLA_HUMAN (protein P09884): Down
LogFC DPOLA_HUMAN (protein P09884): -0.7754
LogFC TZAP_HUMAN (protein P10074 GN=ZBTB48): 0.6846
LogFC LYAG_HUMAN (protein P10253 GN=GAA): 1.719
LogFC RRAS_HUMAN (protein P10301 GN=RRAS): 1.8337
Direction COT1_HUMAN (protein P10589): Down
LogFC COT1_HUMAN (protein P10589): -2.0511
LogFC PPGB_HUMAN (protein P10619 GN=CTSA): 1.238
LogFC LAMC1_HUMAN (protein P11047 GN=LAMC1): 1.296
LogFC MTAP2_HUMAN (protein P11137 GN=MAP2): 1.918
Direction GTR1_HUMAN (protein P11166): Down
LogFC GTR1_HUMAN (protein P11166): -1.063
LogFC GTR3_HUMAN (protein P11169 GN=SLC2A3): 0.7017
Direction PYGM_HUMAN (protein P11217): Down
LogFC PYGM_HUMAN (protein P11217): -1.18
LogFC LAMP1_HUMAN (protein P11279 GN=LAMP1): 0.9125
Direction TOP2A_HUMAN (protein P11388): Down
LogFC TOP2A_HUMAN (protein P11388): -2.075
LogFC G6PD_HUMAN (protein P11413 GN=G6PD): 0.8016
LogFC PRPS2_HUMAN (protein P11908 GN=PRPS2): 1.0339
Direction COBA1_HUMAN (protein P12107): Down
LogFC COBA1_HUMAN (protein P12107): -0.989
Direction CO6A1_HUMAN (protein P12109): Down
LogFC CO6A1_HUMAN (protein P12109): -2.398
LogFC LAMP2_HUMAN (protein P13473 GN=LAMP2): 0.7741
LogFC MTDC_HUMAN (protein P13995 GN=MTHFD2): 1.415
LogFC CBPM_HUMAN (protein P14384 GN=CPM): 1.371
Direction CCNB1_HUMAN (protein P14635): Down
LogFC CCNB1_HUMAN (protein P14635): -2.713
LogFC ARSA_HUMAN (protein P15289 GN=ARSA): 0.8733
LogFC NQO2_HUMAN (protein P16083 GN=NQO2): 1.439
Direction ITB4_HUMAN (protein P16144): Down
LogFC ITB4_HUMAN (protein P16144): -1.613
LogFC CBR1_HUMAN (protein P16152 GN=CBR1): 1.143
Direction ANK1_HUMAN (protein P16157): Down
LogFC ANK1_HUMAN (protein P16157): -1.996
Direction GCFC2_HUMAN (protein P16383): Down
LogFC GCFC2_HUMAN (protein P16383): -2.09
LogFC SYN1_HUMAN (protein P17600 GN=SYN1): 2.1979
Direction CAN2_HUMAN (protein P17655): Down
LogFC CAN2_HUMAN (protein P17655): -0.5036
LogFC DDX5_HUMAN (protein P17844 GN=DDX5): -0.6799
Direction PFKAL_HUMAN (protein P17858): Down
LogFC PFKAL_HUMAN (protein P17858): -0.5357
Direction ITB5_HUMAN (protein P18084): Down
LogFC ITB5_HUMAN (protein P18084): -1.897
Direction SDC1_HUMAN (protein P18827): Down
LogFC SDC1_HUMAN (protein P18827): -2.102
Direction PLCG1_HUMAN (protein P19174): Down
LogFC PLCG1_HUMAN (protein P19174): -1.036
LogFC RXRA_HUMAN (protein P19793 GN=RXRA): -2.086
Direction MX1_HUMAN (protein P20591): Down
LogFC MX1_HUMAN (protein P20591): -3.492
LogFC FILA_HUMAN (protein P20930 GN=FLG): 2.48
Direction RASA1_HUMAN (protein P20936): Down
LogFC RASA1_HUMAN (protein P20936): -0.7321
LogFC VATB2_HUMAN (protein P21281 GN=ATP6V1B2): 1.09
LogFC VATC1_HUMAN (protein P21283 GN=ATP6V1C1): 0.7781
LogFC AOFA_HUMAN (protein P21397 GN=MAOA): 0.8861
LogFC ACOC_HUMAN (protein P21399 GN=ACO1): 0.9989
LogFC TGM2_HUMAN (protein P21980 GN=TGM2): 2.278
Direction PTPRE_HUMAN (protein P23469): Down
LogFC PTPRE_HUMAN (protein P23469): -2.558
Direction RIR1_HUMAN (protein P23921): Down
LogFC RIR1_HUMAN (protein P23921): -1.151
Direction MCM3_HUMAN (protein P25205): Down
LogFC MCM3_HUMAN (protein P25205): -0.4173
LogFC MOES_HUMAN (protein P26038 GN=MSN): -0.6643
Direction DNMT1_HUMAN (protein P26358): Down
LogFC DNMT1_HUMAN (protein P26358): -0.8972
Direction HMGB2_HUMAN (protein P26583): Down
LogFC HMGB2_HUMAN (protein P26583): -0.4752
Direction SYVC_HUMAN (protein P26640): Down
LogFC SYVC_HUMAN (protein P26640): -0.2125
